Experimental data as given in patent US12391697B2, “Condensed bi-heterocycles as inhibiting agents for Bruton's tyrosine kinase” (BIOGEN MA INC., priority 2019, dated 2025).
Where a name gives a salt, the structure may show the parent alone. Read-outs that look alike come from different tables or passages of the source.

Columns and labels:
[1] = system: CD69 expression on CD19+ B cells in whole blood; assay: In Vitro Whole Blood CD69 Assay; format: cell-based, Human; conditions: human heparinized whole blood, anti-human IgD stimulation, percentage of CD19+ B cells expressing CD69, read-out: IC50
Method: In Vitro Whole Blood CD69 Assay
Human heparinized venous blood from health donors was aliquoted into 96-well plate and “spiked” with serial dilutions of formula I compounds in DMSO or with DMSO without drug. The final concentration of DMSO in all wells was 0.1%. The plate was incubated at 37° C. for 30 min. Drug-containing samples were stimulated with 0.1 μg/mL mouse anti-human IgD-dextran (1A62) or 20 μg/mL polyclonal rabbit F(ab′)2 anti-human IgD. Phosphate-buffered saline (PBS) was added to the negative control unstimulated sample and the plates were incubated overnight (18 to 22 hours) at 37° C. Cells were stained with fluorochrome-conjugated anti-CD19 and anti-CD69 antibodies. Lyse/fix solution was used to remove red blood cells by hypotonic lysis and to fix the remaining cells, which were then analyzed by flow cytometry. CD19+ B cells were gated and analyzed for CD69 expression. The percentage of B cells expressing CD69 was plotted versus the log 10 of the concentration of the drug and the best-fit curves (variable Hill slope) were generated to obtain the IC50 value.

BTK = BTK (Homo sapiens (Human), UniProt Q06187); assay: In Vitro BTK Kinase Assay: Btk-PolyGAT-LS Assay; format: biochemical; conditions: active BTK enzyme 0.25 nM, ATP 10 μM, polyGAT 100 nM, 30 minutes
Chain of BTK (Q06187 whole entry): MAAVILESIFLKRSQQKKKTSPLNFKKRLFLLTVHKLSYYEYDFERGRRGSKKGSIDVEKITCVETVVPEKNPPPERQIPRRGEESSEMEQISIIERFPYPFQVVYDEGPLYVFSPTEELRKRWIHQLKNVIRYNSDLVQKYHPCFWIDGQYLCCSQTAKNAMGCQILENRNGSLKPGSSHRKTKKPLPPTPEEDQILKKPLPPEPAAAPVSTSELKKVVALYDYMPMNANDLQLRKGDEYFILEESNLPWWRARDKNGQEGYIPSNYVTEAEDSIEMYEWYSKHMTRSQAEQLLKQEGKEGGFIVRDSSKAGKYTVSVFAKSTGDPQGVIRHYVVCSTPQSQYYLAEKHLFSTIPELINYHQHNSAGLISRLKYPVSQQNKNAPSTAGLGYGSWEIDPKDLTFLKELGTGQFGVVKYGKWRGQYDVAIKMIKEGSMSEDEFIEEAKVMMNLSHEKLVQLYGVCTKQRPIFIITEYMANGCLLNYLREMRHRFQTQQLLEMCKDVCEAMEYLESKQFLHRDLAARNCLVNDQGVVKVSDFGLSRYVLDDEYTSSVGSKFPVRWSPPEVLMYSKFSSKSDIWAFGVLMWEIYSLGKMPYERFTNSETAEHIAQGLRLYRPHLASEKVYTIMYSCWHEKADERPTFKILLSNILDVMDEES
How it was run: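 Recombinant BTK (0.25 nM) phosphorylating 100 nM polyGAT at 10 μM ATP in Tris-HCl pH 7.5 buffer with MgCl2, DTT, Triton X-100 and casein, 30 min, then EDTA stop.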

In the case of `CO[C@@H]1CCN(c2cc3c(-c4ccc(CNC(=O)c5nc(C(C)(C)C)no5)c(C)c4)ncnn3c2)C1` (single isomer, unassigned) [Example 24], the IC50 ([1]; Homo sapiens, B-cell) is reported as 100 to 1000 nM and the IC50 (BTK) is reported as ≤ 1 nM.

In the case of `Cc1c(CNC(=O)c2nc(C(C)(C)C)no2)ccc(-c2ncnn3cc(N4CCN(C)[C@@H](C)C4)cc23)c1F` (single isomer, unassigned) [Example 26], the IC50 ([1]; Homo sapiens, B-cell) is reported as 100 to 1000 nM and the IC50 (BTK) is reported as ≤ 1 nM.

With `Cc1cc(-c2ncnn3cc(N4CCN(C)[C@@H](C)C4)cc23)ccc1CNC(=O)c1nc(C(C)(C)C)no1` (single isomer, unassigned) [Example 28] the IC50 ([1]; Homo sapiens, B-cell) was 100 to 1000 nM and the IC50 (BTK) was ≤ 1 nM.

For `Cc1cc(-c2ncnn3cc(N4CCO[C@H](C)C4)cc23)ccc1CNC(=O)c1noc(C(C)(C)C)n1` (single isomer, unassigned) [Example 30], the IC50 ([1]; Homo sapiens, B-cell) was 100 to 1000 nM and the IC50 (BTK) was ≤ 1 nM.

`Cc1cc(-c2ncnn3cc(N4C[C@H](C)O[C@@H](C)C4)cc23)ccc1CNC(=O)c1noc(C(C)(C)C)n1` (single isomer, unassigned) [Example 44, hydrochloride] was tested, and the IC50 ([1]; Homo sapiens, B-cell) was 100 to 1000 nM and the IC50 (BTK) was ≤ 1 nM.

With `CC(C)(C)c1nc(C(=O)NCc2cc(F)c(-c3ncnn4cc(N5CCOCC5)cc34)cc2Cl)no1` [Example 1, 5-tert-butyl-N-[[2-chloro-5-fluoro-4-(6-morpholinopyrrolo[2,1-f][1,2,4]triazin-4-yl)phenyl]methyl]-1,2,4-oxadiazole-3-carboxamide] the IC50 ([1]; Homo sapiens, B-cell) was > 1000 nM and the IC50 (BTK) was ≤ 1 nM.

`Cc1c(CNC(=O)c2nc(C(C)(C)C)no2)ccc(-c2ncnn3cc(N4CCOCC4)cc23)c1F` [Example 2, 3-(tert-butyl)-N-(3-fluoro-2-methyl-4-(6-morpholinopyrrolo[2,1-f][1,2,4]triazin-4-yl)benzyl)-1,2,4-oxadiazole-5-carboxamide] was tested, and the IC50 ([1]; Homo sapiens, B-cell) was 100 to 1000 nM and the IC50 (BTK) was ≤ 1 nM.

`Cc1cc(-c2ncnn3cc(N4CCN(C)CC4)cc23)ccc1CNC(=O)c1noc(C(C)(C)C)n1` [Example 4, 5-(tert-butyl)-N-(2-methyl-4-(6-(4-methylpiperazin-1-yl)pyrrolo[2,1-f][1,2,4]triazin-4-yl)benzyl)-1,2,4-oxadiazole-3-carboxamide trifluoroacetate] was tested, and the IC50 ([1]; Homo sapiens, B-cell) was < 100 nM and the IC50 (BTK) was ≤ 1 nM.

For `Cc1cc(-c2ncnn3cc(N4CCOCC4)cc23)ccc1CNC(=O)c1noc(C(C)(C)C)n1` [Example 5, 5-(tert-butyl)-N-(2-methyl-4-(6-morpholinopyrrolo[2,1-f][1,2,4]triazin-4-yl)benzyl)-1,2,4-oxadiazole-3-carboxamide trifluoroacetate], the IC50 ([1]; Homo sapiens, B-cell) was 100 to 1000 nM and the IC50 (BTK) was ≤ 1 nM.

For `Cc1cc(-c2ncnn3cc(C4=CCOCC4)cc23)ccc1CNC(=O)c1noc(C(C)(C)C)n1` [Example 6, 5-(tert-butyl)-N-(4-(6-(3,6-dihydro-2H-pyran-4-yl)pyrrolo[2,1-f][1,2,4]triazin-4-yl)-2-methylbenzyl)-1,2,4-oxadiazole-3-carboxamide], the IC50 ([1]; Homo sapiens, B-cell) was 100 to 1000 nM, the IC50 [1] was < 100 nM and the IC50 (BTK) was ≤ 1 nM.

In the case of `COCCn1cc(-c2cc3c(-c4ccc(CNC(=O)c5noc(C(C)(C)C)n5)c(C)c4)ncnn3c2)cn1` [Example 7, 5-(tert-butyl)-N-(4-(6-(1-(2-methoxyethyl)-1H-pyrazol-4-yl)pyrrolo[2,1-f][1,2,4]triazin-4-yl)-2-methylbenzyl)-1,2,4-oxadiazole-3-carboxamide], the IC50 ([1]; Homo sapiens, B-cell) is reported as < 100 nM and the IC50 (BTK) is reported as ≤ 1 nM.

For `COC1CN(c2cc3c(-c4ccc(CNC(=O)c5noc(C(C)(C)C)n5)c(C)c4)ncnn3c2)C1` [Example 8, 5-(tert-butyl)-N-(4-(6-(3-methoxyazetidin-1-yl)pyrrolo[2,1-f][1,2,4]triazin-4-yl)-2-methylbenzyl)-1,2,4-oxadiazole-3-carboxamide], the IC50 ([1]; Homo sapiens, B-cell) was 100 to 1000 nM and the IC50 (BTK) was ≤ 1 nM.

For `Cc1cc(-c2ncnn3cc(-c4ccn(C)n4)cc23)ccc1CNC(=O)c1noc(C(C)(C)C)n1` [Example 9, 5-(tert-butyl)-N-(2-methyl-4-(6-(1-methyl-1H-pyrazol-3-yl)pyrrolo[2,1-f][1,2,4]triazin-4-yl)benzyl)-1,2,4-oxadiazole-3-carboxamide trifluoroacetate], the IC50 ([1]; Homo sapiens, B-cell) was 100 to 1000 nM and the IC50 (BTK) was ≤ 1 nM.

`Cc1cc(-c2ncnn3cc(-c4cnn(CC(F)F)c4)cc23)ccc1CNC(=O)c1noc(C(C)(C)C)n1` [Example 10, 5-(tert-butyl)-N-(4-(6-(1-(2,2-difluoroethyl)-1H-pyrazol-4-yl)pyrrolo[2,1-f][1,2,4]triazin-4-yl)-2-methylbenzyl)-1,2,4-oxadiazole-3-carboxamide trifluoroacetate] was tested, and the IC50 ([1]; Homo sapiens, B-cell) was 100 to 1000 nM and the IC50 (BTK) was ≤ 1 nM.

`Cc1cc(-c2ncnn3cc(N4CCC(F)C4)cc23)ccc1CNC(=O)c1noc(C(C)(C)C)n1` (centres unmarked) [Example 11, 5-(tert-butyl)-N-(4-(6-(3-fluoropyrrolidin-1-yl)pyrrolo[2,1-f][1,2,4]triazin-4-yl)-2-methylbenzyl)-1,2,4-oxadiazole-3-carboxamide trifluoroacetate] was tested, and the IC50 ([1]; Homo sapiens, B-cell) was 100 to 1000 nM and the IC50 (BTK) was ≤ 1 nM.

With `Cc1cc(-c2ncnn3cc(N4CCC(F)(F)C4)cc23)ccc1CNC(=O)c1noc(C(C)(C)C)n1` [Example 12, 5-(tert-butyl)-N-(4-(6-(3,3-difluoropyrrolidin-1-yl)pyrrolo[2,1-f][1,2,4]triazin-4-yl)-2-methylbenzyl)-1,2,4-oxadiazole-3-carboxamide trifluoroacetate] the IC50 ([1]; Homo sapiens, B-cell) was 100 to 1000 nM and the IC50 (BTK) was ≤ 1 nM.

With `Cn1cc(-c2cc3c(-c4ccc(CNC(=O)c5cnn(C(C)(C)C)c5)c(C(F)F)c4)ncnn3c2)cn1` [Example 212] the IC50 (BTK) was ≤ 1 nM.

In the case of `CC(C)(C)c1nnc(C(=O)NCc2ccc(-c3ncnn4cc(C5=CCOCC5)cc34)cc2C(F)F)o1` [Example 213], the IC50 (BTK) is reported as 1 to 10 nM.

`Cc1cc(-c2ncnn3cccc23)ccc1CNC(=O)c1nnn(C(C)(C)C)n1` [Example 214] gave an IC50 (BTK) of 1 to 10 nM.

With `Cc1cc(-c2ncnn3cc(C(=O)N4CCOCC4)cc23)ccc1CNC(=O)c1noc(C(C)(C)C)n1` [Example 215] the IC50 (BTK) was > 10 nM.

For `Cc1cc(-c2ncnn3cc(C(=O)N4CCN(C)CC4)cc23)ccc1CNC(=O)c1noc(C(C)(C)C)n1` [Example 216], the IC50 (BTK) was > 10 nM.

In the case of `COC1CN(C(=O)c2cc3c(-c4ccc(CNC(=O)c5noc(C(C)(C)C)n5)c(C)c4)ncnn3c2)C1` [Example 217], the IC50 (BTK) is reported as ≤ 1 nM.

With `Cc1c(CNC(=O)c2noc(C(C)(C)C)n2)ccc(-c2ncnn3cccc23)c1F` [Example 218] the IC50 (BTK) was ≤ 1 nM.

`Cn1cc(-c2cc3c(-c4ccc(CNC(=O)c5noc(C(C)(C)C)n5)c(C(F)F)c4)ncnn3c2)cn1` [Example 219] was tested, and the IC50 (BTK) was ≤ 1 nM.

`CC(C)(C)c1nc(C(=O)NCc2ccc(-c3ncnn4cc(N5CCOCC5)cc34)cc2C(F)F)no1` [Example 220] was tested, and the IC50 (BTK) was ≤ 1 nM.

With `CC(C)(C)c1nc(C(=O)NCc2ccc(-c3ncnn4cc(N5CCOCC5)cc34)c(F)c2C(F)F)no1` [Example 221] the IC50 (BTK) was ≤ 1 nM.

`CC(C)(C)c1coc(C(=O)NCc2ccc(-c3ncnn4cc(N5CCOCC5)cc34)cc2C(F)F)n1` [Example 222] was tested, and the IC50 (BTK) was 1 to 10 nM.

For `COc1c(CNC(=O)c2noc(C(C)(C)C)n2)ccc(-c2ncnn3cc(N4CCOCC4)cc23)c1F` [Example 223], the IC50 (BTK) was ≤ 1 nM.

In the case of `Cc1cc(-c2ncnn3cc(-c4ccc(F)cc4)cc23)ccc1CNC(=O)c1noc(C(C)(C)C)n1` [Example 224], the IC50 (BTK) is reported as ≤ 1 nM.

With `Cc1cc(-c2ncnn3cc(-c4ccc(C#N)cc4)cc23)ccc1CNC(=O)c1noc(C(C)(C)C)n1` [Example 225] the IC50 (BTK) was ≤ 1 nM.

For `Cc1cc(-c2ncnn3cc(-c4cncnc4)cc23)ccc1CNC(=O)c1noc(C(C)(C)C)n1` [Example 226], the IC50 (BTK) was ≤ 1 nM.

In the case of `Cc1cc(-c2cc3c(-c4ccc(CNC(=O)c5noc(C(C)(C)C)n5)c(C)c4)ncnn3c2)ccn1` [Example 227], the IC50 (BTK) is reported as ≤ 1 nM.

For `COc1cc(-c2cc3c(-c4ccc(CNC(=O)c5noc(C(C)(C)C)n5)c(C)c4)ncnn3c2)ccn1` [Example 228], the IC50 (BTK) was ≤ 1 nM.

Work on `Cc1cc(-c2ncnn3cc(N4CCOCC4C)cc23)ccc1CNC(=O)c1noc(C(C)(C)C)n1` (centres unmarked) [Example 229] yielded an IC50 (BTK) of 1 to 10 nM.

In the case of `Cc1cc(-c2ncnn3cc(-c4ccccn4)cc23)ccc1CNC(=O)c1noc(C(C)(C)C)n1` [Example 230], the IC50 (BTK) is reported as ≤ 1 nM.

For `Cn1cc(-c2cc3c(-c4ccc(CNC(=O)c5noc(C(C)(C)C)n5)c(CC(F)F)c4)ncnn3c2)cn1` [Example 231], the IC50 (BTK) was ≤ 1 nM.

In the case of `CC(C)(C)c1nc(C(=O)NCc2ccc(-c3ncnn4cc(N5CCOCC5)cc34)cc2CC(F)F)no1` [Example 232], the IC50 (BTK) is reported as ≤ 1 nM.

For `Cn1cc(-c2cc3c(-c4ccc(CNC(=O)c5noc(C(C)(C)C)n5)c(CC(F)F)c4F)ncnn3c2)cn1` [Example 233], the IC50 (BTK) was ≤ 1 nM.

In the case of `CC(C)(C)c1nc(C(=O)NCc2ccc(-c3ncnn4cc(N5CCOCC5)cc34)c(F)c2CC(F)F)no1` [Example 234], the IC50 (BTK) is reported as 1 to 10 nM.

With `COc1c(CNC(=O)c2noc(C(C)(C)C)n2)ccc(-c2ncnn3cc(-c4cnn(C)c4)cc23)c1F` [Example 235] the IC50 (BTK) was ≤ 1 nM.

`CCn1cc(-c2cc3c(-c4ccc(CNC(=O)c5noc(C(C)(C)C)n5)c(C)c4)ncnn3c2)cn1` [Example 236] was tested, and the IC50 (BTK) was ≤ 1 nM.

In the case of `Cc1cc(-c2ncnn3cc(-c4cnn(C5CC5)c4)cc23)ccc1CNC(=O)c1noc(C(C)(C)C)n1` [Example 237], the IC50 (BTK) is reported as ≤ 1 nM.
